Where two headings read alike, the source gives them in different places.
What was measured:
[1] = system: MIA PaCa-2 (KRAS G12C) cells; experiment: Cellular pERK HTRF assay (KRAS_G12C pERK); format: cell-based, human; conditions: read-out: G12C_pERK
Method in brief: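 MIA PaCa-2 cells plated overnight, then exposed to compound for 4 h at 37 °C (G12C compounds). Phospho-ERK1/2 measured in lysates by HTRF (665/620 nm) after overnight antibody incubation; IC50 from percent inhibition versus log concentration.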

KRAS G12C = KRAS G12C (Homo sapiens, UniProt P01116, G12C); experiment: GDP-GTP exchange assay (KRAS_G12C exchange); format: biochemical; conditions: bodipy-GDP loaded KRAS G12C 2.5 nM, SOS1 150 nM, GppNHp; 2 hours pre-incubation, 2 hours reaction; read-out: G12C_exchange
Sequence of KRAS G12C (P01116 1-188 isoform P01116-2 G12C): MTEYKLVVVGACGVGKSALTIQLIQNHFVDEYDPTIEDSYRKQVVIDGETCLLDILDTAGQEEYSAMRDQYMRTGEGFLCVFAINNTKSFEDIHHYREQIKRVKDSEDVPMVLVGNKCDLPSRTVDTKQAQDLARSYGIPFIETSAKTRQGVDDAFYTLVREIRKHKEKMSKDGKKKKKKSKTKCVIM
Method in brief: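 Fluorescence exchange of bodipy-GDP for GppNHp, SOS1-driven, read at 485/520 nm; IC50 from four-parameter variable-slope fit. Both mutants used 2.5 nM final labelled protein and a 2 h compound pre-incubation. G12C reaction had 500 uM GppNHp and 150 nM SOS1 for 2 h; G12D ran 4 h.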

[2] = Homo sapiens, MIA PaCa-2, 4 hours incubation

| IC50 [1, 2] [nM] | IC50 (KRAS G12C) [nM] | IC50 ([1]; 4 hours incubation) [nM] | Structure (SMILES) |
| --- | --- | --- | --- |
| ≤ 100 | ≤ 100 | – | C=CC(=O)N1CC[C@H](n2cnc3c(N4CC(N(C)C)C4)nc4cc(-c5cccc(Cl)c5C)c(Cl)cc4c32)C[C@H]1CC#N [Example 171, 2-((2S,4S)-1-acryloyl-4-(8-chloro-7-(3-chloro-2-methylphenyl)-4-(3-(dimethylamino)azetidin-1-yl)-1H-imidazo[4,5-c]quinolin-1-yl)piperidin-2-yl)acetonitrile] |
| ≤ 100 | ≤ 100 | – | C=CC(=O)N1CCC(n2cnc3c(OC[C@@H]4CCCN4C)nc4c(F)c(-c5c(C)c(Cl)cc6[nH]ncc56)c(Cl)cc4c32)CC1CC#N (single isomer, unassigned) [Example 40a] |
| ≤ 100 | ≤ 100 | – | CC#CC(=O)N1CC[C@H](n2nnc3c(OC[C@@H]4CCCN4C)nc4c(Cl)c(-c5cccc6cccnc56)c(Cl)cc4c32)C[C@H]1CC#N (single isomer, unassigned) [Example 279a] |
| ≤ 100 | ≤ 100 | – | C=CC(=O)N1CC[C@H](n2nnc3c(OC[C@@H]4CCCN4C)nc4c(Cl)c(-c5cccc(C)c5Cl)c(Cl)cc4c32)C[C@H]1CC#N [Example 286, 2-((2S,4S)-1-acryloyl-4-(6,8-dichloro-7-(2-chloro-3-methylphenyl)-4-(((S)-1-methylpyrrolidin-2-yl)methoxy)-1H-[1,2,3]triazolo[4,5-c]quinolin-1-yl)piperidin-2-yl)acetonitrile] |
| ≤ 100 | ≤ 100 | – | C=CC(=O)N1CC[C@H](n2cnc3c(N4CC(N(C)C)C4)nc4c(F)c(-c5cccc6c5OCCC6)c(Cl)cc4c32)C[C@H]1CC#N [Example 65, 2-((2S,4S)-1-acryloyl-4-(8-chloro-7-(chroman-8-yl)-4-(3-(dimethylamino)-azetidin-1-yl)-6-fluoro-1H-imidazo[4,5-c]quinolin-1-yl)piperidin-2-yl)acetonitrile] |
| ≤ 100 | ≤ 100 | – | C[C@@H](CN(C)C)Oc1nc2c(F)c(-c3ccc(F)cc3)c(Cl)cc2c2c1nnn2[C@H]1CCN(C(=O)/C=C/CF)[C@H](CC#N)C1 [Example 130, 2-((2S,4S)-4-(8-chloro-4-(((S)-1-(dimethylamino)propan-2-yl)oxy)-6-fluoro-7-(4-fluorophenyl)-1H-[1,2,3]triazolo[4,5-c]quinolin-1-yl)-1-((E)-4-fluorobut-2-enoyl)piperidin-2-yl)acetonitrile] |
| ≤ 100 | ≤ 100 | – | C=CC(=O)N1CC[C@H](n2nnc3c(OC[C@@H]4CCCN4C)nc4c(F)c(-c5ccc(F)c(C)c5)c(C)cc4c32)C[C@H]1CC#N [Example 199, 2-((2S,4S)-1-acryloyl-4-(6-fluoro-7-(4-fluoro-3-methylphenyl)-8-methyl-4-(((S)-1-methylpyrrolidin-2-yl)methoxy)-1H-[1,2,3]triazolo[4,5-c]quinolin-1-yl)piperidin-2-yl)acetonitrile] |
| ≤ 100 | ≤ 100 | – | C=CC(=O)N1CCC(n2cnc3c(OC[C@@H]4CCCN4C)nc4c(F)c(-c5cccc6ccccc56)c(Cl)cc4c32)CC1CC#N (mixture of isomers) [Example 38, 2-(1-acryloyl-4-(8-chloro-6-fluoro-4-(((S)-1-methylpyrrolidin-2-yl)methoxy)-7-(naphthalen-1-yl)-1H-imidazo[4,5-c]quinolin-1-yl)piperidin-2-yl)acetonitrile] |
| ≤ 100 | ≤ 100 | – | Cc1cc2c(nc(N3CC(C)(N(C)C)C3)c3nnn([C@H]4CCN(C(=O)/C=C/CF)[C@H](CC#N)C4)c32)c(F)c1-c1cccc(Cl)c1C [Example 104, 2-((2S,4S)-4-(7-(3-chloro-2-methylphenyl)-4-(3-(dimethylamino)-3-methyl-azetidin-1-yl)-6-fluoro-8-methyl-1H-[1,2,3]triazolo[4,5-c]quinolin-1-yl)-1-((E)-4-fluorobut-2-enoyl)piperidin-2-yl)acetonitrile] |
| ≤ 100 | ≤ 100 | – | C=CC(=O)N1C[C@H](n2cnc3c(N4CC(N(C)C)C4)nc4c(F)c(-c5cccc(C)c5C)c(Cl)cc4c32)C[C@@H]1CC#N [Example 62, 2-((2R,4R)-1-acryloyl-4-(8-chloro-4-(3-(dimethylamino)azetidin-1-yl)-7-(2,3-dimethylphenyl)-6-fluoro-1H-imidazo[4,5-c]quinolin-1-yl)pyrrolidin-2-yl)acetonitrile] |
| ≤ 100 | ≤ 100 | – | Cc1cccc(-c2c(C)cc3c(nc(O[C@@H](C)CN(C)C)c4nnn([C@H]5CCN(C(=O)/C=C/C(F)F)[C@H](CC#N)C5)c43)c2F)c1C [Example 144, 2-((2S,4S)-1-((E)-4,4-difluorobut-2-enoyl)-4-(4-(((S)-1-(dimethylamino)-propan-2-yl)oxy)-7-(2,3-dimethylphenyl)-6-fluoro-8-methyl-1H-[1,2,3]triazolo[4,5-c]quinolin-1-yl)piperidin-2-yl)acetonitrile] |
| ≤ 100 | ≤ 100 | – | CC#CC(=O)N1CC[C@H](n2nnc3c(OC[C@@H]4CCCN4C)nc4c(F)c(-c5c(C)c(Cl)cc6[nH]ncc56)c(Cl)cc4c32)C[C@H]1CC#N [Example 182, 2-((2S,4S)-1-(but-2-ynoyl)-4-(8-chloro-7-(6-chloro-5-methyl-1H-indazol-4-yl)-6-fluoro-4-(((S)-1-methylpyrrolidin-2-yl)methoxy)-1H-[1,2,3]triazolo[4,5-c]quinolin-1-yl)piperidin-2-yl)acetonitrile] |
| ≤ 100 | ≤ 100 | – | Cc1c(Cl)cc2[nH]ncc2c1-c1c(CCC#N)cc2c(nc(N3CC(N(C)C)C3)c3nnn([C@H]4CCN(C(=O)/C=C/CN(C)C)[C@H](CC#N)C4)c32)c1F [Example 232, 3-(7-(6-chloro-5-methyl-1H-indazol-4-yl)-1-((2S,4S)-2-(cyanomethyl)-1-((E)-4-(dimethylamino)but-2-enoyl)piperidin-4-yl)-4-(3-(dimethylamino)azetidin-1-yl)-6-fluoro-1H-[1,2,3]triazolo[4,5-c]quinolin-8-yl)propanenitrile] |
| ≤ 100 | ≤ 100 | – | CN(C)C/C=C/C(=O)N1CC[C@H](n2cnc3c(N4CC(N(C)C)C4)nc4c(F)c(-c5ccc(F)c6cccnc56)c(C(F)(F)F)cc4c32)C[C@H]1CC#N (single isomer, unassigned) [Example 230a] |
| 1000 to 5000 | 100 to 1000 | – | C=CC(=O)N1CCC(n2cnc3c(=O)n(C)c4c(F)c(-c5cc(O)cc6ccccc56)c(Cl)cc4c32)C1 (racemic) [Example 33, 1-(1-acryloylpyrrolidin-3-yl)-8-chloro-6-fluoro-7-(3-hydroxynaphthalen-1-yl)-5-methyl-1,5-dihydro-4H-imidazo[4,5-c]quinolin-4-one] |
| ≤ 100 | ≤ 100 | – | CC#CC(=O)N1CC[C@H](n2nnc3c(O[C@@H](C)CN(C)C)nc4c(F)c(-c5cccc(C)c5C)c(C)cc4c32)C[C@H]1CC#N [Example 146, 2-((2S,4S)-1-(but-2-ynoyl)-4-(4-(((S)-1-(dimethylamino)propan-2-yl)oxy)-7-(2,3-dimethylphenyl)-6-fluoro-8-methyl-1H-[1,2,3]triazolo[4,5-c]quinolin-1-yl)piperidin-2-yl)acetonitrile] |
| ≤ 100 | ≤ 100 | – | C=CC(=O)N1CC[C@H](n2cnc3c(N4CC(N(C)C)C4)nc4c(F)c(-c5ccc(C)cc5C)c(Cl)cc4c32)C[C@H]1CC#N [Example 59, 2-((2S,4S)-1-acryloyl-4-(8-chloro-4-(3-(dimethylamino)azetidin-1-yl)-7-(2,4-dimethylphenyl)-6-fluoro-1H-imidazo[4,5-c]quinolin-1-yl)piperidin-2-yl)acetonitrile] |
| – | ≤ 100 | ≤ 100 | C=CC(=O)N1CC[C@H](n2cnc3c(N4CC(N(C)C)C4)nc4c(F)c(-c5cccc6ccncc56)c(Cl)cc4c32)C[C@H]1CC#N (single isomer, unassigned) [Example 71b] |
| ≤ 100 | ≤ 100 | – | CC#CC(=O)N1CC[C@H](n2nnc3c(N4CC(N(C)C)C4)nc4c(F)c(-c5c(C)c(Cl)cc6[nH]ncc56)c(C#N)cc4c32)C[C@H]1CC#N [Example 170, 1-((2S,4S)-1-(but-2-ynoyl)-2-(cyanomethyl)piperidin-4-yl)-7-(6-chloro-5-methyl-1H-indazol-4-yl)-4-(3-(dimethylamino)azetidin-1-yl)-6-fluoro-1H-[1,2,3]triazolo[4,5-c]quinoline-8-carbonitrile] |
| ≤ 100 | ≤ 100 | – | C=CC(=O)N1CC[C@H](n2cnc3c(N4CC(N(C)C)C4)nc4c(F)c(-c5cccc6c5OCCO6)c(Cl)cc4c32)C[C@H]1CC#N [Example 69, 2-((2S,4S)-1-acryloyl-4-(8-chloro-7-(2,3-dihydrobenzo[b][1,4]dioxin-5-yl)-4-(3-(dimethylamino)azetidin-1-yl)-6-fluoro-1H-imidazo[4,5-c]quinolin-1-yl)piperidin-2-yl)acetonitrile] |
| ≤ 100 | ≤ 100 | – | C=CC(=O)N1CC[C@H](n2nnc3c(OC[C@@H]4CCCN4C)nc4c(Cl)c(-c5cccc6cccnc56)c(Cl)cc4c32)C[C@H]1CC#N (single isomer, unassigned) [Example 288a] |
| ≤ 100 | ≤ 100 | – | C=CC(=O)N1CC[C@H](n2nnc3c(N4CC(N(C)C)C4)nc4c(F)c(-c5cccc(C)c5C)c(C)cc4c32)C[C@H]1CC#N [Example 147, 2-((2S,4S)-1-acryloyl-4-(4-(3-(dimethylamino)azetidin-1-yl)-7-(2,3-dimethylphenyl)-6-fluoro-8-methyl-1H-[1,2,3]triazolo[4,5-c]quinolin-1-yl)piperidin-2-yl)acetonitrile] |
